Source: publication PMC11489226 (Archives of Toxicology, 2024)

Experiments:
[1] = molecular target: T1, CYP2A6 (Homo sapiens, UniProt P11509); assay: Urinary 1,7-dimethyluric acid/paraxanthine metabolic ratio after caffeine (CYP2A6 phenotyping); settings: urine, 0–360 min after 50 mg caffeine oral; ten PCB-exposed subjects
T1 sequence (P11509 1-494): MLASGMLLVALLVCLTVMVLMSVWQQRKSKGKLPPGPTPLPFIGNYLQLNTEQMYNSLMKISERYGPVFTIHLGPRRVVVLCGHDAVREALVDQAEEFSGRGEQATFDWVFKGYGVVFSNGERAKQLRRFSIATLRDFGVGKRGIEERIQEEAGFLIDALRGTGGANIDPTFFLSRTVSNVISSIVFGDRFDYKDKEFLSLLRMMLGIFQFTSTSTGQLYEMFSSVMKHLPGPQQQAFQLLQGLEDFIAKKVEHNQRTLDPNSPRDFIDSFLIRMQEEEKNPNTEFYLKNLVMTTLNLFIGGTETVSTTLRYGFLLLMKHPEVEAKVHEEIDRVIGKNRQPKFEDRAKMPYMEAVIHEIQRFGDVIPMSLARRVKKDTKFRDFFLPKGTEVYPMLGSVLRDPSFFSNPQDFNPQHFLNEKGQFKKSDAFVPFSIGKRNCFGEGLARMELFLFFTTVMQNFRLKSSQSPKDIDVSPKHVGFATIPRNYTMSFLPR
Excerpt: Ten subjects with prior occupational exposure to PCBs and ten controls were included into a clinical CYP phenotyping cocktail study at the Institute for Occupational, Social and Environmental Medicine, University Hospital RWTH Aachen. PCB-exposed participants were reinvited from the HELPcB (Health Effects in High-Level Exposure to PCB) medical surveillance program. […] Subjects were allowed to consume non-caffeinated beverages and received a meal 3 following the administration of the drug cocktail. Concentrations of the test compounds and their CYP-mediated metabolites were measured using LC–MS, with urine sampling over 24 h with 5 time points at 1,2,4,6, and 24 h after drug cocktail intake. […] Urine samples were weighed during sampling.
20 µL urine or calibrators and quality controls in Sigmatrix urine diluent (SAE0074-1L, Sigma-Aldrich) were protein precipitated with 80 µL methanol including 1000 ng/mL internal standards caffeine-d9, paraxanthine-d6, and 1,7-dimethyluric acid-d3. Samples were briefly vortexed and centrifuged for 5 min at 17,000g and 4 °C. […] Caffeine and paraxanthine were detected in positive ion mode and 1,7-dimethyluric acid in negative ion mode. […] The metabolic ratio for 1,7-dimethyluric acid/paraxanthine was calculated based on the measured urine concentrations. […]

[2] = tested on: HEK293CYP2A6 cells; assay: Light microscopic evaluation of HEK293CYP2A6 cells; format: cell-based, human; settings: 24 h of incubation (data not shown)
[3] = tested on: HEK293CYP2C9 cells; assay: Neutral comet assay in HEK293CYP2C9 cells; format: cell-based, human; settings: HEK293CYP2C9 control cells; 20 or 30 µM
Protocol: (§1) For neutral comet assays, transgenic CYP2A6 and transgenic CYP2C9 cells were treated with parent PCBs for 5 h. After treatments, 50 μL of a suspension of 10^5 cells/mL were washed in PBS and resuspended in 500 μL of preheated agarose (37 °C). The agarose/cell suspensions were applied to microscopic slides and left for 30 min at 4 °C to allow gel polymerization. After cell lysis using a commercial buffer (Trevigen, Gaithersburg, USA), single-cell gel electrophoresis was performed at 1 V/cm for 1 h. After precipitation of the DNA with ammonium acetate, samples were fixed in 70% ethanol for 30 min and dried. To visualize dsDNA, SYBR™ Green I Nucleic Acid Gel Stain (Invitrogen, Carlsbad, USA) was used. Pictures of at least 50 cells/section were taken using a fluorescence microscope (DMRX, Leica: 450–490 nm BP- filter, 40 × magnification). The extent of the genotoxic effect of PCBs was calculated using the ImageJ-based OpenComet software.

[4] = tested on: HEK293CYP2C9 cells; assay: Micronucleus assay in HEK293CYP2C9 cells; format: cell-based, human; settings: 20 and 30 µM, 24 h
Protocol: (§2) Transgenic HEK293CYP2A6 and HEK293CYP2C9 cells were cultured in T25 flasks, with a seeding density of 1 × 10^6 cells per flask at 37 °C with 5% CO2. Cells were allowed to grow for 24 h geneticin free before PCBs were added (20 µM or 30 µM). Controls included cells grown in the presence of 1% ethanol (vol/vol) (negative control) or […] 4-nitroquinoline 1-oxide (positive control). Following further incubation for 24 h, cells were synchronized by adding Cytochalasin B. Subsequently, cells were harvested by trypsinization, centrifuged (2,000g, 10 min), and washed with DPBS (Dulbecco’s PBS). For hypotonic shock, 4 °C cold potassium chloride solution was added to the cells under agitation. Cells were completely resuspended and incubated at room temperature for 5 min. After centrifugation (2,500g, 10 min), the supernatant was discarded. To fix the cells, they were treated with a methanol/acetic acid solution (− 20 °C), with a minimum incubation time of 15 min at room temperature. Following centrifugation (2,500g, 10 min), the supernatant was discarded, and the fixation process was repeated at least three times. Finally, the samples were dissolved in 1 mL of fixative solution and incubated overnight at 4 °C. For analysis, two to three drops from each sample were placed on a glass slide, with intermittent heating of the slide. Subsequently, the cells were visualized with acridine orange, and using a fluorescence microscope (Leica DM6000B, Filter I3 450–490 nm), 2,000 cells per sample were counted.

[5] = tested on: HEK293CYP2A6 cells; assay: MTT assay in HEK293CYP2A6 cells; format: cell-based, human; settings: for Concentration from which the fraction of cell viability affected (FA) increased: HEK293CYP2A6 cells, MTT; for IC50: Homo sapiens, HEK293CYP2A6 cell line, read-out: IC50 (MTT, cell viability / metabolic activity); for PCB concentration at which the difference between HEK293 cells and CYP2A6 transgenic cells becomes statistically significant: MTT assay, Fig. 2
Protocol: For the determination of metabolic activity, HEK293 cells as well as transgenic HEK293CYP2A6 and HEK293CYP2C9 cells were plated into 96-well flat-bottomed microtiter plates (Becton Dickinson, Heidelberg, Germany) at a density of 1 × 10^5 cells in 100 μL of media. Cells were allowed to grow for 24 h geneticin free before PCBs were added. Controls included cells grown in medium with and without ethanol (maximal 1% (vol/vol)) added. After 48 h, the ability of remaining viable cells to transform 3-(4,5-dimethylthiazol-2-yl)-2,5-diphenyltetrazolium bromide (MTT) into formazan was assessed (MTT Cell Proliferation Assay, ATCC, Manassas, USA). The absorbance of the samples was measured on a Microplate Reader (FLUOstar, BMG Labtech, Ortenberg, Germany) at 450 nm.

[6] = tested on: HEK293CYP2A6 cells; assay: Neutral comet assay in HEK293CYP2A6 cells; format: cell-based, human; settings: for Comet assay: percentage of tail DNA / DNA damage above background: 20 or 30 µM
Protocol: as §1

[7] = PCB concentrations in plasma of HELPcB participants (2010); format: in vivo, human; settings: human, plasma, other: occupational exposure, sample of 2010
[8] = tested on: Salmonella typhimurium strains; set-up: method as in Wyndham et al. [1976]; settings: PCB52 and its primary metabolites; ref Wyndham et al. [1976]; cited from earlier work
[9] = tested on: bone marrow and liver; set-up: method as in Sargent et al. [1992]; settings: ref Sargent et al. [1992]; cited from earlier work
[10] = tested on: mouse fibroblasts; set-up: method as in Stadnicki et al. [1979]; settings: ref Stadnicki et al. [1979]; cited from earlier work
[11] = tested on: HEK293CYP2A6 cells; assay: Micronucleus assay in HEK293CYP2A6 cells; format: cell-based, human; settings: HEK293CYP2A6 cells; 20 and 30 µM, 24 h
Protocol: as §2

[12] = tested on: human lymphocytes; set-up: method as in Stadnicki et al. [1979]; settings: ref Stadnicki et al. [1979]; cited from earlier work
[13] = tested on: human lymphocytes; set-up: method as in Sargent et al. [1989]; settings: ref Sargent et al. [1989]; cited from earlier work
[14] = tested on: human lung fibroblast; set-up: method as in Hashmi et al. [2015]; settings: higher concentrations compared to lower concentrations; ref Hashmi et al. [2015]; cited from earlier work
[15] = tested on: fish cells; set-up: method as in Marabini et al. [2011]; settings: ref Marabini et al. [2011]; cited from earlier work

Row | SMILES | Light microscopic evaluation: type of effect [2] | Percentages of micronuclei [4] | Concentration from which the fraction of cell viability affected (FA) increased [5] | IC50 [5] | PCB concentration at which the difference between HEK293 cells and CYP2A6 transgenic cells becomes statistically significant [5] | DNA damage classified according to the comet scale (percentage of tail DNA) ([6]; 20 µM) | DNA damage classified according to the comet scale (percentage of tail DNA) ([6]; 30 µM) | Comet assay: percentage of tail DNA / DNA damage above background [6] | concentration at 2010 calendar year ([7]; HELPcB participant AD) | concentration at 2010 calendar year ([7]; HELPcB participant AE) | concentration at 2010 calendar year ([7]; HELPcB participant eight) | concentration at 2010 calendar year ([7]; HELPcB participant five) | concentration at 2010 calendar year ([7]; HELPcB participant four) | concentration at 2010 calendar year of sampling ([7]; HELPcB participant one) | concentration at 2010 calendar year ([7]; HELPcB participant seven) | concentration at 2010 calendar year ([7]; HELPcB participant six) | concentration at 2010 calendar year ([7]; HELPcB participant three) | concentration at 2010 calendar year of sampling ([7]; HELPcB participant two) | Percentages of micronuclei [11] | further results
1 | Cn1c(=O)[nH]c2[nH]c(=O)n(C)c2c1=O [1,7-DMU, 1,7-dimethyluric acid] |  |  |  |  |  |  |  |  |  |  |  |  |  |  |  |  |  |  |  | Logarithmically transformed metabolic ratio of 1,7-DMU and paraxanthine, median [1]: 0.4
2 | Clc1ccc(-c2ccc(Cl)cc2Cl)cc1 [PCB28, 2,4,4′-trichlorobiphenyl] | primarily cytotoxic effects (cell death) | inactive | 10 µM | 27 µM | 40 µM | moderate damage | moderate damage | concentration-dependent increase | 0.823 ng/mL | 1.48 ng/mL | 0.1 ng/mL | 0.21 ng/mL | 0.023 ng/mL | 2.69 ng/mL | 0.051 ng/mL | 0.309 ng/mL | 0.999 ng/mL | 0.019 ng/mL |  | Comet assay: increase in percentage of tail DNA [3]: not evident
3 | Clc1ccc(Cl)c(-c2cc(Cl)ccc2Cl)c1 [PCB52, 2,2′,5,5′-tetrachlorobiphenyl] | cytostatic effects (proliferation arrest) | indistinguishable effects | 20 µM | 26.2 µM | 40 µM | low damage | low damage | not | 0.026 ng/mL | 0.005 ng/mL | 0.005 ng/mL | 0.031 ng/mL | 0.005 ng/mL | 0.348 ng/mL | 0.021 ng/mL | 0.043 ng/mL | 0.04 ng/mL | 0.005 ng/mL | diminished effect | Mutagenic activity [8]: did not exhibit mutagenic activity; Chromosomal aberrations in vivo [9]: absence of chromosomal aberrations; DNA strand breaks [10]: positive or weakly positive; DNA strand breaks [12]: positive or weakly positive; Sister chromatid exchange [13]: negative
4 | Clc1ccc(Cl)c(-c2cc(Cl)c(Cl)cc2Cl)c1 [PCB101, 2,2′,4,5,5′-pentachlorobiphenyl] | cytostatic effects (proliferation arrest) | inactive | 20 µM | 34.8 µM | 60 µM | high damage | moderate damage | DNA damage was also seen | 0.073 ng/mL | 0.005 ng/mL | 0.005 ng/mL | 0.111 ng/mL | 0.005 ng/mL | 0.519 ng/mL | 0.03 ng/mL | 0.227 ng/mL | 0.078 ng/mL | 0.005 ng/mL | approximately threefold elevated | Genotoxicity [14]: increased significantly; DNA strand breaks [15]: induce; Micronucleus formation [15]: induce; Genotoxicity compared with etoposide (comet assay) ([6]; etoposide 10 µm positive control): more potent than of etoposide
